Laboratory results from patent US7323541B2, “Polypeptide DNA thereof and use of the same” (Takeda Pharmaceutical Company Limited, priority 2001, dated 2008).
Where no end group is shown, it is not given here.

Tests used:
[1] = target: T1, rat TGR23-5 expressing CHO cells (Rattus norvegicus, UniProt P0C0L6); experiment: Intracellular Ca ion concentration increasing activity using FLIPR; type: cell-based
T1 construct: expressed in transfected cells; host or cells: CHO dhfr- cells, pAKKO-rTGR23-5, clone No. 29
T1 sequence (P0C0L6 1-372): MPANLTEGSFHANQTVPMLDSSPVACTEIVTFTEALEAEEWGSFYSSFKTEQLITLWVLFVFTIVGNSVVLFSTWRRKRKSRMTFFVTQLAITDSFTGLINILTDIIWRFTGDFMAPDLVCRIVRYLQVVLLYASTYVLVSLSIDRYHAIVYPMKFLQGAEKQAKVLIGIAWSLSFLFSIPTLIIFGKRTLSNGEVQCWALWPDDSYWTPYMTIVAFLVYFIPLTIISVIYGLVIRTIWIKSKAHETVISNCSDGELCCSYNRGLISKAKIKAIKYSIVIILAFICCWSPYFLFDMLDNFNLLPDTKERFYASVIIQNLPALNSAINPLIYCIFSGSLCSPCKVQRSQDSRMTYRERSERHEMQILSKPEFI
Procedure: (§1) An enhancing activity of intracellular Ca^2+ release was assayed using FLIPR (Molecular Devices, Inc.). The CHO/TGR23-2 cells prepared in Example 1 and selected in Example 2 were plated on 96-well plate at 3×10^4 cells/well and cultured for 24 hours. A loading buffer was prepared by adding 1 vial of Fluo 3-AM to 10 ml of Hanks' solution (pH7.4) containing 2.5 mM Probenecid and 20 mM HEPES (hereafter, Hanks' solution (pH7.4) containing 2.5 mM Probenecid and 20 mM HEPES may be referred to as a washing buffer). The culture medium was discarded from the culture plate and 100 μl/well of the loading buffer were added to the cells. Then, the cells were incubated for 60 minutes in the incubator. After the loading buffer was removed from the culture plate and the cells were washed with the washing buffer, the plate was put in place of FLIPR. A sample was prepared by adding a sample buffer, which 2 mg/ml BSA and 1 mg/ml CHAPS were added to the washing buffer, to lyophilized product, stirring and treating by ultrasonication for 30 minutes, and transferred to 96-well sample plate. This sample plate was also put in place for assay. The enhancing activity of intracellular Ca^2+ release was measured as an increase of fluorescent intensity, which is raised by addition of the sample.
The rat TGR23-2 ligand (1-18) having various concentrations was administered in accordance with the method described in Example 5, to the CHO cells, in which rat TGR23-1 and rat TGR23-5 are expressed. Subsequently, the intracellular Ca ion concentration increasing activity was measured using FLIPR.

[2] = target: T2, human TGR23-1B expressing CHO cells (Homo sapiens, UniProt Q6W5P4, N107I/S241R); experiment: as above; type: cell-based
T2 construct: expressed in transfected cells; host or cells: CHO dhfr- cells, pAKKO-TGR23-1B, clone No. 59
T2 sequence (Q6W5P4 1-371 N107I/S241R): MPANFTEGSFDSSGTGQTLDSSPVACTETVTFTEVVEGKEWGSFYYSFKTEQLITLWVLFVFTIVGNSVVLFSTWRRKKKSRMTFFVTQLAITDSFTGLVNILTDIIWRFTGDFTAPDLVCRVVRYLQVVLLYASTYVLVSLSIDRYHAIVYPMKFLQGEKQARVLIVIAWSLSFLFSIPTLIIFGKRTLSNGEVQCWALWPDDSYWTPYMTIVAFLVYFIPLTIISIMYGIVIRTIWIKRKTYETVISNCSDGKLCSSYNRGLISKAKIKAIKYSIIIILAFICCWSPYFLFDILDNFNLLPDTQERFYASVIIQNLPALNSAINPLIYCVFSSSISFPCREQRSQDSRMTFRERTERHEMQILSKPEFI
Procedure: as §1
The human TGR23-2 ligand (1-20) having various concentrations was administered in accordance with the method described in Example 5, to the CHO cells, in which human TGR23-1A, human TGR23-1B, human TGR23-1C and human TGR23-1D are expressed. Subsequently, the intracellular Ca ion concentration increasing activity was measured using FLIPR.

[3] = Feeding level after administration into rat lateral ventricle; type: in vivo, Wistar rats; conditions: 10 nmol/rat, at 1.5 hours and two hours after administration, vs distilled water group, p<0.05
Procedure: Effects on the feeding level by administration of the human TGR23-2 ligand (1-20) into rat lateral ventricle were studied.
Rats were bred for lightning hours from eight to twenty o'clock at 25° C. Male Wistar rats at eight weeks old (260 through 280 g of weight at the time of operation) were anesthetized with 50 mg/kg of pentobarbital, i.p., and each rat was immobilized in a rat brain stereotaxic apparatus. The incisor bar was set 3.3 mm lower from the interaural line. The skull was exposed, and using a dental drill a hole was made on the bone for implantation of a guide cannula AG-8 (0.4 mm inner diameter, 0.5 mm outer diameter, EICOM Co., Ltd.). In addition, three anchor screws were buried around the hole. A stainless-steel guide cannula, AG-8 was inserted in such a manner that its tip would be situated in the upper part of the lateral ventricle. Following the atlas of Paxinos and Watson (1986), the stereotaxic coordinates were set to AP: −0.8 mm, L: 1.5 mm, and H: −4.5 mm from the bregma. The guide cannula was secured to the skull using an instant adhesive, dental cement and anchor screws. […]
For about one week after embedding of guide cannula, rats were bred to be postoperatively recuperative and be naturalized to powder feed. […] Feeding level after infusion was measured with time using Feed-Scale (Columbus) every 30 minutes until four hours after administration.

EC50 ([1]; rat TGR23-5 expressing cells, calculated from graph FIG. 28) [nM] | Sequence | intracellular Ca ion concentration increasing activity ([1]; rat TGR23-5 expressing CHO cells) | intracellular Ca ion concentration increasing activity [2] | feeding level [3]
14 | SFRNGVGSGVKKTSFRRA [rat TGR23-2 ligand (1-18), Ser-Phe-Arg-Asn-Gly-Val-Gly-Ser-Gly-Val-Lys-Lys-Thr-Ser-Phe-Arg-Arg-Ala] | the intracellular Ca ion level increased depending on the concentration of this ligand |  | 
 | SFRNGVGTGMKKTSFQRAKS [human TGR23-2 ligand (1-20)] |  | the intracellular Ca ion level increased depending on the concentration of this ligand | significant decrease of feeding level
